ChEMBL document CHEMBL1201862, “PubChem BioAssay data set” (2004)
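Method: 48-hour compound exposure of cells in 96-well plates, five concentrations, linear interpolation of endpoints. The concentration for 50% growth inhibition is given as GI50.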 The source made the active and inactive calls. No stated cut-off is given here; in the data, active = GI50 up to about 1.1 µM and inactive = higher.

Columns and labels:
Assay in all cases: NCI-60 cell line screen, 48 h
SK-MEL-2 = tested on: SK-MEL-2
MDA-N = tested on: MDA-N
A549 = tested on: A549
OVCAR-8 = tested on: OVCAR-8
HCT-15 = tested on: HCT-15
Malme-3M = tested on: Malme-3M
NCI-H23 = tested on: NCI-H23
CAKI-1 = tested on: CAKI-1
HT-29 = tested on: HT-29
KM12 = tested on: KM12
SK-MEL-5 = tested on: SK-MEL-5
NCI/ADR-RES = tested on: NCI/ADR-RES
DU-145 = tested on: DU-145
EKVX = tested on: EKVX
NCI-H522 = tested on: NCI-H522
PC-3 = tested on: PC-3
MDA-MB-435 = tested on: MDA-MB-435
MDA-MB-231 = tested on: MDA-MB-231
ACHN = tested on: ACHN
SK-MEL-28 = tested on: SK-MEL-28
U-251 = tested on: U-251
UACC-257 = tested on: UACC-257
MCF7 = tested on: MCF7
BT-549 = tested on: BT-549
HOP-92 = tested on: HOP-92
M14 = tested on: M14
HL-60 = tested on: HL-60
UACC-62 = tested on: UACC-62
OVCAR-4 = tested on: OVCAR-4
HCC 2998 = tested on: HCC 2998
A498 = tested on: A498
HOP-62 = tested on: HOP-62
SK-OV-3 = tested on: SK-OV-3
LOX IMVI = tested on: LOX IMVI
COLO 205 = tested on: COLO 205
UO-31 = tested on: UO-31
SF-295 = tested on: SF-295
RPMI-8226 = tested on: RPMI-8226
K562 = tested on: K562
IGROV-1 = tested on: IGROV-1
SW-620 = tested on: SW-620
SF-268 = tested on: SF-268
NCI-H226 = tested on: NCI-H226
MOLT-4 = tested on: MOLT-4
RXF 393 = tested on: RXF 393
786-0 = tested on: 786-0
NCI-H460 = tested on: NCI-H460
HCT-116 = tested on: HCT-116
OVCAR-5 = tested on: OVCAR-5
T47D = tested on: T47D
SN12C = tested on: SN12C
Hs-578T = tested on: Hs-578T
TK-10 = tested on: TK-10
SR = tested on: SR
SNB-19 = tested on: SNB-19
OVCAR-3 = tested on: OVCAR-3
CCRF-CEM = tested on: CCRF-CEM
SF-539 = tested on: SF-539

Question: How did the GI50 (SK-MEL-2) turn out when `N#CC12C(=O)N3C(=NC(c4ccco4)NC3c3ccco3)C1(C#N)C(c1ccco1)NC1=C2CCCC1` (stereo not drawn) was run?
Answer: > 100 µM (inactive)

Question: What about the GI50 (MDA-N) of the same compound?
Answer: > 100 µM (inactive)

Question: And the GI50 (A549)?
Answer: > 100 µM (inactive)

Question: What about the GI50 (OVCAR-8) of the same compound?
Answer: > 100 µM (inactive)

Question: What about the GI50 (HCT-15) of the same compound?
Answer: > 100 µM

Question: And the GI50 (Malme-3M)?
Answer: > 100 µM (inactive)

Question: And the GI50 (NCI-H23)?
Answer: > 100 µM (inactive)

Question: What about the GI50 (CAKI-1) of the same compound?
Answer: > 100 µM (inactive)

Question: And the GI50 (HT-29)?
Answer: > 100 µM (inactive)

Question: And the GI50 (KM12)?
Answer: > 100 µM (inactive)

Question: What about the GI50 (SK-MEL-5) of the same compound?
Answer: > 100 µM (inactive)

Question: And the GI50 (NCI/ADR-RES)?
Answer: > 100 µM (inactive)

Question: And the GI50 (DU-145)?
Answer: > 100 µM (inactive)

Question: And the GI50 (EKVX)?
Answer: > 100 µM (inactive)

Question: And the GI50 (NCI-H522)?
Answer: 73.1 µM (inactive)

Question: What about the GI50 (PC-3) of the same compound?
Answer: > 100 µM (inactive)

Question: What about the GI50 (MDA-MB-435) of the same compound?
Answer: > 100 µM (inactive)

Question: What about the GI50 (MDA-MB-231) of the same compound?
Answer: > 100 µM (inactive)

Question: What about the GI50 (ACHN) of the same compound?
Answer: > 100 µM (inactive)

Question: And the GI50 (SK-MEL-28)?
Answer: > 100 µM (inactive)

Question: What about the GI50 (U-251) of the same compound?
Answer: > 100 µM (inactive)

Question: And the GI50 (UACC-257)?
Answer: > 100 µM (inactive)

Question: What about the GI50 (MCF7) of the same compound?
Answer: > 100 µM (inactive)

Question: And the GI50 (BT-549)?
Answer: > 100 µM (inactive)

Question: What about the GI50 (HOP-92) of the same compound?
Answer: > 100 µM (inactive)

Question: What about the GI50 (M14) of the same compound?
Answer: > 100 µM (inactive)

Question: What about the GI50 (HL-60) of the same compound?
Answer: > 100 µM (inactive)

Question: And the GI50 (UACC-62)?
Answer: > 100 µM (inactive)

Question: What about the GI50 (OVCAR-4) of the same compound?
Answer: > 100 µM (inactive)

Question: What about the GI50 (HCC 2998) of the same compound?
Answer: > 100 µM (inactive)

Question: What about the GI50 (A498) of the same compound?
Answer: > 100 µM (inactive)

Question: And the GI50 (HOP-62)?
Answer: > 100 µM (inactive)

Question: And the GI50 (SK-OV-3)?
Answer: > 100 µM (inactive)

Question: What about the GI50 (LOX IMVI) of the same compound?
Answer: > 100 µM (inactive)

Question: And the GI50 (COLO 205)?
Answer: > 100 µM (inactive)

Question: And the GI50 (UO-31)?
Answer: > 100 µM (inactive)

Question: What about the GI50 (SF-295) of the same compound?
Answer: > 100 µM (inactive)

Question: What about the GI50 (RPMI-8226) of the same compound?
Answer: > 100 µM (inactive)

Question: And the GI50 (K562)?
Answer: > 100 µM (inactive)

Question: What about the GI50 (IGROV-1) of the same compound?
Answer: > 100 µM (inactive)

Question: What about the GI50 (SW-620) of the same compound?
Answer: > 100 µM (inactive)

Question: And the GI50 (SF-268)?
Answer: > 100 µM (inactive)

Question: And the GI50 (NCI-H226)?
Answer: > 100 µM (inactive)

Question: What about the GI50 (MOLT-4) of the same compound?
Answer: > 100 µM (inactive)

Question: What about the GI50 (RXF 393) of the same compound?
Answer: > 100 µM (inactive)

Question: And the GI50 (786-0)?
Answer: > 100 µM (inactive)

Question: What about the GI50 (NCI-H460) of the same compound?
Answer: > 100 µM (inactive)

Question: And the GI50 (HCT-116)?
Answer: > 100 µM (inactive)

Question: And the GI50 (OVCAR-5)?
Answer: > 100 µM (inactive)

Question: What about the GI50 (T47D) of the same compound?
Answer: > 100 µM (inactive)

Question: What about the GI50 (SN12C) of the same compound?
Answer: > 100 µM (inactive)

Question: What about the GI50 (Hs-578T) of the same compound?
Answer: > 100 µM (inactive)

Question: What about the GI50 (TK-10) of the same compound?
Answer: > 100 µM (inactive)

Question: And the GI50 (SR)?
Answer: > 100 µM (inactive)

Question: What about the GI50 (SNB-19) of the same compound?
Answer: > 100 µM (inactive)

Question: For `Cc1ccc(/C=C2\CN(C)CC3=C2OC(N)=C(C#N)C3c2ccc(C)cc2)cc1` (stereo not drawn), which GI50 (SK-MEL-2) is on record?
Answer: 39.9 µM (inactive)

Question: And the GI50 (MDA-N)?
Answer: 17.2 µM (inactive)

Question: What about the GI50 (A549) of the same compound?
Answer: 14.4 µM (inactive)

Question: And the GI50 (OVCAR-8)?
Answer: 13.4 µM (inactive)

Question: What about the GI50 (HCT-15) of the same compound?
Answer: 14.1 µM

Question: And the GI50 (Malme-3M)?
Answer: 20.3 µM (inactive)

Question: What about the GI50 (NCI-H23) of the same compound?
Answer: 16 µM (inactive)

Question: What about the GI50 (CAKI-1) of the same compound?
Answer: 19.5 µM (inactive)

Question: And the GI50 (HT-29)?
Answer: 16.1 µM (inactive)

Question: What about the GI50 (KM12) of the same compound?
Answer: 15.5 µM (inactive)

Question: And the GI50 (OVCAR-3)?
Answer: 12.1 µM (inactive)

Question: And the GI50 (SK-MEL-5)?
Answer: 25.9 µM (inactive)

Question: What about the GI50 (NCI/ADR-RES) of the same compound?
Answer: 20.7 µM (inactive)

Question: What about the GI50 (DU-145) of the same compound?
Answer: 17.9 µM (inactive)

Question: And the GI50 (EKVX)?
Answer: 17.1 µM (inactive)

Question: And the GI50 (NCI-H522)?
Answer: 12.2 µM (inactive)

Question: And the GI50 (PC-3)?
Answer: 15.7 µM (inactive)

Question: What about the GI50 (MDA-MB-435) of the same compound?
Answer: 15.8 µM (inactive)

Question: What about the GI50 (MDA-MB-231) of the same compound?
Answer: > 38.5 µM (inactive)

Question: And the GI50 (ACHN)?
Answer: 18.8 µM (inactive)

Question: What about the GI50 (SK-MEL-28) of the same compound?
Answer: 27.8 µM (inactive)

Question: And the GI50 (U-251)?
Answer: 34.7 µM (inactive)

Question: And the GI50 (UACC-257)?
Answer: 18.8 µM (inactive)

Question: What about the GI50 (MCF7) of the same compound?
Answer: 18 µM (inactive)

Question: What about the GI50 (BT-549) of the same compound?
Answer: 16.7 µM (inactive)

Question: What about the GI50 (HOP-92) of the same compound?
Answer: 1.05 µM (active)

Question: And the GI50 (M14)?
Answer: 20.6 µM (inactive)

Question: And the GI50 (HL-60)?
Answer: < 0.01 µM (active)

Question: And the GI50 (UACC-62)?
Answer: 18.4 µM (inactive)

Question: And the GI50 (OVCAR-4)?
Answer: 12.2 µM (inactive)

Question: And the GI50 (HCC 2998)?
Answer: 15.2 µM (inactive)

Question: And the GI50 (A498)?
Answer: 16 µM (inactive)

Question: What about the GI50 (HOP-62) of the same compound?
Answer: 22.7 µM (inactive)

Question: What about the GI50 (SK-OV-3) of the same compound?
Answer: 9.84 µM (inactive)

Question: What about the GI50 (LOX IMVI) of the same compound?
Answer: 13.5 µM (inactive)

Question: What about the GI50 (COLO 205) of the same compound?
Answer: 17 µM (inactive)

Question: And the GI50 (UO-31)?
Answer: 17.6 µM (inactive)

Question: And the GI50 (SF-295)?
Answer: 16.8 µM (inactive)

Question: What about the GI50 (RPMI-8226) of the same compound?
Answer: 9.98 µM (inactive)

Question: What about the GI50 (K562) of the same compound?
Answer: 11.2 µM (inactive)

Question: And the GI50 (CCRF-CEM)?
Answer: 4.2 µM (inactive)

Question: And the GI50 (IGROV-1)?
Answer: 7.5 µM (inactive)

Question: And the GI50 (SW-620)?
Answer: 32 µM (inactive)

Question: And the GI50 (SF-268)?
Answer: 30.1 µM (inactive)

Question: What about the GI50 (NCI-H226) of the same compound?
Answer: 22.2 µM (inactive)

Question: What about the GI50 (MOLT-4) of the same compound?
Answer: 7.76 µM (inactive)

Question: And the GI50 (RXF 393)?
Answer: 11.3 µM (inactive)

Question: What about the GI50 (786-0) of the same compound?
Answer: 15.6 µM (inactive)

Question: And the GI50 (NCI-H460)?
Answer: 17.9 µM (inactive)

Question: And the GI50 (SF-539)?
Answer: 41.7 µM (inactive)

Question: And the GI50 (HCT-116)?
Answer: 12.6 µM (inactive)

Question: What about the GI50 (OVCAR-5) of the same compound?
Answer: 22.8 µM (inactive)

Question: And the GI50 (T47D)?
Answer: 7.11 µM (inactive)

Question: And the GI50 (SN12C)?
Answer: 17.3 µM (inactive)

Question: What about the GI50 (Hs-578T) of the same compound?
Answer: 46.3 µM (inactive)

Question: What about the GI50 (TK-10) of the same compound?
Answer: 31.5 µM (inactive)

Question: What about the GI50 (SR) of the same compound?
Answer: 19.9 µM (inactive)

Question: And the GI50 (SNB-19)?
Answer: 26.4 µM (inactive)
